# Results: patent US7550453B2, “2-alkoxy-3,4,5-trihydroxy-alkylamides, preparation thereof, compositions containing them and use thereof” (Aventis Pharma SA, priority 2004, dated 2009)
# Test system: Hep-G2 cells
# Test: Inhibition of cell proliferation of Hep-G2 cells (intracellular ATP, CellTiterGlo)
# Assay type: cell-based
# Settings: Homo sapiens, HepG2, 72 hours incubation, ATP content, read-out: IC 50 (μM)/HEP G2
# Method: The antitumoral activity of products 1 to 10 was determined by measuring the inhibition of cell proliferation of Hep-G2 cells. The cells are subcultured in a cell culture medium at a concentration of 1000 cells per well, and incubated for 4 hours at 37° C. and 5% CO2.
# Medium used for the Hep-G2 and HCT-116 cell culture: Dubelcco's modified Eagle's medium/Ham mixture F12 (Gibco); NEAA (10%; nonessential amino acids, Gibco); sodium pyruvate (1%, Gibco); L-glutamine (1%, Gibco); fetal calf serum (5%; PAA).
# After 4 hours, the test products dissolved in a DMSO/cell culture medium mixture are added at various concentrations and the resulting mixtures are incubated for 72 hours at 37° C. and 5% CO2. The intracellular ATP content was measured using the CellTiterGlo test reagent (Promega).
row,SMILES,IC50 [µM]
1,"CO[C@@H](C(=O)N[C@H]1CCCCN(Cc2ccc(-c3ccccc3)cc2)C1=O)[C@H](O)[C@@H](O)[C@H](O)C=NOCc1ccccc1 (racemic) [Ex 10, N—[(S)-1-(biphenyl-4-ylmethyl)-2-oxoperhydro-azepin-3-yl](2R,3R,4S,5S)-6-benzyloxyimino-3,4,5-trihydroxy-2-methoxyhexylamide]",18.3
2,"CO[C@@H](C(=O)NC1CCCCNC1=O)[C@H](O)[C@@H](O)[C@H](O)/C=C/C(C)C (some centres unmarked) [Bengamide E, reference compound]",7
3,"CO[C@@H](C(=O)N[C@H]1CCCCN(Cc2ccc(-c3ccccc3)cc2)C1=O)[C@H](O)[C@@H](O)[C@H](O)/C=C/C(C)(C)C [Ex 2, N—[(S)-1-(biphenyl-4-ylmethyl)-2-oxoperhydroazepin-3-yl]-(E)-(2R,3R,4S,5R)-3,4,5-trihydroxy-2-methoxy-8,8-dimethylnon-6-enamide]",1.3
4,"COC(=O)C1CC(NC(=O)[C@H](OC)[C@H](O)[C@@H](O)[C@H](O)/C=C/C(C)(C)C)C(=O)N1 (stereo partly drawn) [Ex 5, Methyl 5-oxo-4-((E)-(2R,3R,4S,5R)-3,4,5-tri-hydroxy-2-methoxy-8,8-dimethylnon-6-enoylamino)pyrrolidine-2-carboxylate]",26.7
5,"CO[C@@H](C(=O)NC1CSCCNC1=O)[C@H](O)[C@@H](O)[C@H](O)/C=C/C(C)(C)C (stereo partly drawn) [Ex 8, N-(5-oxoperhydro-1,4-thiazepin-6-yl)-(E)-(2R,3R,4S,5R)-3,4,5-trihydroxy-2-methoxy-8,8-dimethylnon-6-enamide]",0.83

# Next, values leading:
row,IC50 [µM],SMILES
1,0.17,"CO[C@@H](C(=O)NC1Cc2ccccc2CN(C)C1=O)[C@H](O)[C@@H](O)[C@H](O)/C=C/C(C)(C)C (stereo partly drawn) [Ex 1, N-(2-Methyl-3-oxo-2,3,4,5-tetrahydro-1H-2-benzazepin-4-yl)-(E)-(2R,3R,4S,5R)-3,4,5-trihydroxy-2-methoxy-8,8-dimethylnon-6-enamide]"
2,0.48,"CO[C@@H](C(=O)NC1CN(c2ccccc2)C1=O)[C@H](O)[C@@H](O)[C@H](O)/C=C/C(C)(C)C (stereo partly drawn) [Ex 3, N-(2-Oxo-1-phenylazetidin-3-yl)-(E)-(2R,3R,4S,5R)-3,4,5-trihydroxy-2-methoxy-8,8-dimethylnon-6-enamide]"
3,3.1,"CO[C@@H](C(=O)NC1CCNC1=O)[C@H](O)[C@@H](O)[C@H](O)/C=C/C(C)(C)C (stereo partly drawn) [Ex 4, N-(2-oxopyrrolidin-3-yl)-(E)-(2R,3R,4S,5R)-3,4,5-trihydroxy-2-methoxy-8,8-dimethylnon-6-enamide]"
4,1.19,"CO[C@@H](C(=O)NC1CCCNC1=O)[C@H](O)[C@@H](O)[C@H](O)/C=C/C(C)(C)C (stereo partly drawn) [Ex 6, N-(2-oxopiperidin-3-yl)-(E)-(2R,3R,4S,5R)-3,4,5-trihydroxy-2-methoxy-8,8-dimethylnon-6-enamide]"
5,1.11,"CO[C@@H](C(=O)NC1Cc2ccccc2NC1=O)[C@H](O)[C@@H](O)[C@H](O)/C=C/C(C)(C)C (stereo partly drawn) [Ex 7, N-(2-oxo-1,2,3,4-tetrahydroquinolin-3-yl)-(E)-(2R,3R,4S,5R)-3,4,5-trihydroxy-2-methoxy-8,8-dimethylnon-6-enamide]"
6,3.6,"CO[C@@H](C(=O)N[C@H]1Cc2ccccc2[C@H]2CCCCN2C1=O)[C@H](O)[C@@H](O)[C@H](O)/C=C/C(C)(C)C [Ex 9, N-((7S,12bR)-6-oxo-1,2,3,4,6,7,8,12b-octa-hydropyrido[2,1-a][2]benzazepin-7-yl)-(E)-(2R,3R,4S,5R)-3,4,5-trihydroxy-2-methoxy-8,8-dimethylnon-6-enamide]"
